Data set [1] concerns MGL. Description: MGL inhibition, HSip-1 fluorescence. It is filed as biochemical. As to conditions: 30 µM. On the procedure:
The selectivity of 1, 2 and PAG for rCSE over other RSS-producing enzymes, CBS and 3MST, was examined (Fig. 4a). CBS is a PLP-dependent enzyme, like CSE, and produces H2S from cysteine and homocysteine as substrates. 3MST is also an H2S-producing enzyme, but is not PLP-dependent and uses 3-mercaptopyruvate as a substrate. The amount of H2S produced by CBS or 3MST was evaluated in the presence or absence of the inhibitor by measuring the fluorescence intensity of HSip-1. […] We also examined the inhibitory activity towards two other PLP-dependent enzymes, MGL and ALT. MGL metabolizes L-methionine to α-ketobutyric acid, methanethiol and ammonia, and is inhibited by PAG[14]. MGL also produces H2S from homocysteine as a substrate, and this activity of MGL can be measured by fluorescence detection with HSip-1. […] The enzymatic activity of ALT can be assessed by means of a coupled assay using the reduction of pyruvate to L-lactate with lactate dehydrogenase and NADH and measuring the change in absorption of NADH.
10 µL of 200 µM homocysteine in 30 mM HEPES (pH 7.4) was added to 10 µL of a solution containing 20 µg/mL MGL (Sigma-Aldrich), 100 µM PLP, 1 µM HSip-1, 0.005% tween 20 and various concentrations of the inhibitor (0.5% DMSO as a cosolvent). The mixture was incubated at 25 °C for 100 min and the fluorescence intensity of HSip-1 was measured with a microplate reader.

Data set [2] deals with rCSE (Rattus norvegicus, UniProt P18757). The data set is described as follows: Live-cell fluorescence imaging of sulfane sulfur with SSP4 in rCSE-expressing COS-7 cells. It counts as cell-based. Conditions: COS-7 cells expressing rCSE, 1000 µM. On the procedure:
Finally, we evaluated the inhibitory activity of 1 towards rCSE in cells. […] So, we prepared COS-7 cells expressing rCSE, treated them with 1 at various concentrations (0, 100, 300 and 1000 µM), and performed fluorescence imaging of sulfane sulfur with SSP4. […] Thus, this inhibitor is available for live-cell experiments.
COS-7 cells were maintained in Dulbecco’s modified Eagle’s medium (DMEM) containing 10% fetal calf serum (FBS) and 1% penicillin streptomycin in a humidified atmosphere at 37 °C. The cells were seeded in 6 cm dishes at a density of 5 × 10^5 cells per dish. Transient transfection was performed with Lipofectamine 3000 (Thermo Fisher Scientific). Briefly, 2.5 µg plasmid, 5 µL P3000 reagent, and 7.5 µL Lipofectamine 3000 reagent were mixed in Opti-MEM, and the mixture was added to the cells. After incubation for 24 h, transfected COS-7 cells were re-seeded in eight-well chamber slides (µ-Slide 8 well high, ibidi GmbH) at a density of 4 × 10^4 cells per well. […] Excess probe was removed and the cells were washed with HBSS, then fluorescence images were captured using a Nikon A1R + confocal laser scanning microscope with an ECLIPSE Ti-E inverted microscope and a 20 × objective lens. […] Fluorescence intensity of images was calculated by using NIS-Elements software (Nikon).

Data set [3] concerns the target T1, hCSE (Homo sapiens, UniProt P32929).
T1 construct: expressed in transfected cells; host or cells: HEK293T
Description: hCSE inhibition in living HEK293T cells expressing hCSE (pretreatment, wash, lysis, HSip-1). It is filed as cell-based. As for the experimental part:
We next examined the suitability of 1 for live-cell experiments. First, we performed CCK-8 assay (Dojindo) to examine its cytotoxicity. COS7 cells were incubated with various concentrations of 1 for 27 h at 37 °C under 5% CO2 and the cell viability was assessed. […] We then examined whether 1 can inhibit the enzymatic activity of hCSE in living cells by employing an indirect approach (Supplementary Fig. S12). HEK293T cells expressing hCSE were incubated with 0–1 mM 1 for 30 min, then washed twice with phosphate-buffered saline (PBS), and lysed in RIPA buffer (50 mM Tris–HCl buffer (pH 7.6), 150 mM NaCl, 1% Nonidet P40 Substitute, 0.5% sodium deoxycholate, protease inhibitor cocktail, 0.1% SDS). The inhibitory activity of 1 was evaluated by fluorescence detection after adding 1.5 mM cysteine, 100 μM PLP and 1 μM HSip-1 to these cell lysates.
Supplementary Figure S12. Experimental protocol for the indirect assessment of the hCSE-inhibitory activity of 1 in living cells. […] L-Cysteine (substrate), PLP and HSip-1 were added to the cell lysate (450 μg/mL cell lysate, 1.5 mM L-cysteine, 100 μM PLP, 1 μM HSip-1 in 30 mM HEPES buffer (pH 7.4) containing 0.005% Tween 20), and the fluorescence was measured with a plate reader (Ex. = 490 nm, Em. = 510 nm).

Molecules are shown by their SMILES.

T1 sequence (P32929 whole entry): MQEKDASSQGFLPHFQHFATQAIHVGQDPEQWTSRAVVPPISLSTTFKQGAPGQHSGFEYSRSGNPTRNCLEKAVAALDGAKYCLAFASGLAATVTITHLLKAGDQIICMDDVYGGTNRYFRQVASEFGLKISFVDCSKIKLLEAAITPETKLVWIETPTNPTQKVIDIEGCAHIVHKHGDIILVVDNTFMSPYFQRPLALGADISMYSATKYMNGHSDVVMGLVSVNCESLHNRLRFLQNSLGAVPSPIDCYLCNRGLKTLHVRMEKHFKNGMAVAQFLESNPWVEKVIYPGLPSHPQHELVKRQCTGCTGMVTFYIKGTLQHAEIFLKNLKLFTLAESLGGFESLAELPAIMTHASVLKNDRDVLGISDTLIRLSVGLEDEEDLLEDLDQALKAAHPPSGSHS
Chain of rCSE (P18757 whole entry): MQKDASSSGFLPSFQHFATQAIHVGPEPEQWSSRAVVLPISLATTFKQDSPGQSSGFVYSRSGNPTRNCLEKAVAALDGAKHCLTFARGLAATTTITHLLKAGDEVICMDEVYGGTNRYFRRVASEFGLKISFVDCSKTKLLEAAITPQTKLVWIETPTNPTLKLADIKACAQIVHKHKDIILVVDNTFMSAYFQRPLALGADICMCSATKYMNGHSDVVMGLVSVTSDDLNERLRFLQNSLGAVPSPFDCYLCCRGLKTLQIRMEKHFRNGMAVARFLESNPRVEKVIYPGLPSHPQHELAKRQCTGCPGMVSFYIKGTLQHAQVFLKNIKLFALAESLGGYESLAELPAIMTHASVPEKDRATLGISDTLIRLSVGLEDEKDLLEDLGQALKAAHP

In general, IC50 refers to the point on the concentration scale where inhibition reaches its midpoint. Turning to `NNC(=O)C(N)=O` [Compound 1, oxamic hydrazide], the “inhibitory activity towards MGL / selectivity for CSE over MGL” value in data set [1] is “high selectivity for CSE over MGL and ALT”. Besides, the “SSP4 fluorescence intensity (sulfane sulfur) in cells” value in data set [2] was “almost completely suppressed”. Besides, the IC50 in data set [3] (HEK293T cells expressing hCSE incubated 30 min with 1, washed, lysed, mean ± S.E., read-out: IC50, inhibitory activity towards hCSE in living cells) was 170 ± 33 µM. For the same molecule, the cell-membrane permeability entry in data set [3] (concluded from inhibition of hCSE in living cells) is “sufficiently cell-membrane permeable”.
